Laboratory results from US7229621B2, “Method to enhance the immunogenicity of an antigen” (Torrey Pines Institute for Molecular Studies, priority 1998, dated 2007).
Values joined by “and” are separate entries in the source; they are usually repeats but may differ in a detail not shown here. Equal values may be shown once.

Tests used:
EL4 tumor cells = assay: EL4 parent tumor growth (negative control tumor) after intravaginal immunization; format: in vivo, C57BL/6 mice; conditions: SIINFEKL in acetone and dibutyl phthalate intravaginally; EL4 lacks ovalbumin
From the text: The mucous membranes lack the tough barrier posed by the stratum corneum of the skin. […] The EL4 parent tumor cell line, lacking chicken ovalbumin, was used as a negative control; no immunity against the EL4 tumor cells was seen. Thus, the inventors' hypothesis regarding penetration of the stratum corneum was confirmed; the […] peptide was not effectively reaching the immature dendritic cells, known as Langerhans cells, underlying the stratum corneum.

E.G7-OVA cells = conditions: endogenous SIINFEKL, reported by Rotzschke et al. and Malarkannan et al.; cited from earlier work
MHC class I molecule K^b = target: T1, MHC class I molecule K^b (Mus musculus, UniProt P01901); assay: […]:K^b complexes on primary epidermal Langerhans cells in vitro (mAb 25-D1.16 flow cytometry); format: cell-based, C57BL/6 mice; conditions: 1.5 hrs
T1 construct: endogenous in cells; host or cells: primary epidermal Langerhans cells from C57BL/6 dorsal ear skin explants
T1 sequence (P01901 22-369): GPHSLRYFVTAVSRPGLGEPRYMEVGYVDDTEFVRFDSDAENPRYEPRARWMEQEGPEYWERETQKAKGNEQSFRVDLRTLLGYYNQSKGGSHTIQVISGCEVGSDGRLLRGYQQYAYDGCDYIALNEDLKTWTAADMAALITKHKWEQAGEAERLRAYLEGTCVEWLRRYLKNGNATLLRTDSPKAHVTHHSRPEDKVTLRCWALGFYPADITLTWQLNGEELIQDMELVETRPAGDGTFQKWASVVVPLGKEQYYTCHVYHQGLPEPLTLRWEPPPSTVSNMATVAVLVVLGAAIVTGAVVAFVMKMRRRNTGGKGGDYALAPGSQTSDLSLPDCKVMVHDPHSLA
T1 sequence (P01887 21-119 partner): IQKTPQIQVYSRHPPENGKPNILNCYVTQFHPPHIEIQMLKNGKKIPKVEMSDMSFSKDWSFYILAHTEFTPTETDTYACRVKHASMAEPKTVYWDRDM
From the text: To evaluate the immunogenic potential of various vaccine formulations and delivery methods, an antigen system that permits quantitative determination of the number of specific peptide:MHC complexes expressed on the cell membrane was used. To date, the only direct way to quantitate antigenic epitopes expressed on living cells and recognized by T cells is with the use of monoclonal antibodies (mAbs) specific for individual peptide:MHC complexes. Chicken ovalbumin (OVA) is a 40 kDa protein that has been used for many years as a prototypic experimental antigen for immunologic studies. The OVA257-264 peptide, […] (963 Da), is processed and presented in the peptide-binding groove of the MHC class I molecule K^b. The mAb, 25-D1.16, has specificity for the […]:K^b complex (Porgador et al. 1997 Immunity 6:715–726).
Primary epidermal Langerhans cells were obtained from cultured explants of C57BL/6 dorsal ear skin according to the method of Ortner et al. (Ortner et al. 1996 J. Immunol. Meth. 193:71). Over a period of 72 hrs in culture, Langerhans cells mature and migrate out of the explant, dropping onto the bottom of the culture dish. These cells were harvested and incubated for 1.5 hrs at 37° C. with various concentrations of synthetic […] peptide. The cells were then washed and stained with a FITC-conjugated anti-MHC class II (I-A^b) mAb, as well as with affinity purified and biotinylated 25-D1.16 followed by PE-avidin, and analyzed on a FACScan® flow cytometer. Non-specific binding of immunoglobulin proteins was blocked by pre-incubation and staining of the cells in a mixture of isotype control mAbs (rat IgG2a, rat IgG2b, mouse IgG1 and mouse IgG2a, each at 100–200 μg/ml) and the anti-Fc receptor mAb 2.4G2. Langerhans cells were identified by their characteristic light scatter properties (high forward, moderate side scatter) and exceptionally high levels of MHC class II expression, with the latter used to optimize the light scatter gate for each experiment. Dead cells were excluded from analysis by their uptake of 7AAD (7-amino-actinomycin D).
Each data point represents the mean and S.E. of 3 to 5 independent experiments. […]
As stated previously, whether mature antigen-bearing dendritic cells will be encountered by and activate naive T cells in the lymph node is likely to depend not only on the number of antigen-bearing dendritic cells that enter the node, but also on the density of MHC:peptide complexes expressed on their membranes. To estimate the density of peptide:MHC complexes on the immigrant dendritic cells generated by this procedure, we compared the fluorescence intensity of various cell populations detected by the peptide:MHC-specific mAb, 25-D1.16, using identical staining conditions and flow cytometer settings. The results are shown in Table IV, providing the number of specific peptide:MHC complexes expressed on the plasma membrane of dendritic cells after various treatments in vitro or in vivo.

[1] = system: dendritic cells in draining lymph node; assay: Antigen-bearing dendritic cells in lymph nodes after injection of soluble protein or peptide with or without topical migration inducer; format: in vivo, mice
Procedure: The injections were followed 2 hours later by topical application of dibutyl phthalate and acetone to the abdominal skin. The antigen-bearing dendritic cells that had migrated to the draining lymph node two days later were analyzed as described above and are shown in the upper right quadrant of each dot plot.
This was followed 2 hrs later by: A) no further treatment, or B) topical application of dibutyl phthalate and acetone to the abdominal skin. The antigen-bearing dendritic cells that had migrated to the draining lymph node two days later are shown in the upper right quadrant of each dot plot.
As stated previously, whether mature antigen-bearing dendritic cells will be encountered by and activate naive T cells in the lymph node is likely to depend not only on the number of antigen-bearing dendritic cells that enter the node, but also on the density of MHC:peptide complexes expressed on their membranes.

[2] = 144 μg in 150 μl HBSS injected, no further treatment, two days later
[3] = 144 μg injected, topical dibutyl phthalate and acetone 2 hrs later, two days later
[4] = 20 μl of 0.5 mM in HBSS injected, dibutyl phthalate and acetone 2 hours later, two days later
[5] = immigrant Langerhans cells from inguinal lymph nodes 48 hrs after 4.8 μg SIINFEKL injected

For “SIINFEKL [eight amino acid peptide OVA257-264 of chicken ovalbumin, tumor-associated peptide antigen presented by K^b]”, the “immunity against EL4 tumor cells” value (EL4 tumor cells) is listed as “no immunity”, the “Median No. of Complexes/Cell” value (E.G7-OVA cells) is listed as 88 complexes/cell and 90 complexes/cell and 89^d complexes/cell and the “Median No. of Complexes/Cell” value (MHC class I molecule K^b; 0.1 nM SIINFEKL in vitro) is listed as 240 complexes/cell. For the same sequence, the “Median Specific Fl. Intensity” value (MHC class I molecule K^b; 0.1 nM SIINFEKL in vitro) was 12, the “Median No. of Complexes/Cell” value (MHC class I molecule K^b; 1.0 nM SIINFEKL in vitro) was 1,600 complexes/cell and the “Median Specific Fl. Intensity” value (MHC class I molecule K^b; 1.0 nM SIINFEKL in vitro) was 80. The “Median No. of Complexes/Cell” value (MHC class I molecule K^b; 10 nM SIINFEKL in vitro) was 4,180 complexes/cell, the “Median Specific Fl. Intensity” value (MHC class I molecule K^b; 10 nM SIINFEKL in vitro) was 209 and the “Median No. of Complexes/Cell” value (MHC class I molecule K^b; 100 nM SIINFEKL in vitro) was 11,160 complexes/cell. The “Median Specific Fl. Intensity” value (MHC class I molecule K^b; 100 nM SIINFEKL in vitro) was 558, the “Median No. of Complexes/Cell” value (MHC class I molecule K^b; 1 μM SIINFEKL in vitro) was 15,200 complexes/cell and the “Median Specific Fl. Intensity” value (MHC class I molecule K^b; 1 μM SIINFEKL in vitro) was 760. The “Dendritic Cells per Lymph Node” value [1, 2] was 3,024, the “K^b:SIINFEKL^+ DC per LymphNode” value [1, 2] was 504 and the “Total Cells per Lymph Node” value [1, 2] was 6.3 × 10^6. For the same sequence, the “Dendritic Cells per Lymph Node” value [1, 3] was 55,912, the “K^b:SIINFEKL^+ DC per LymphNode” value [1, 3] was 22,239 and the “Total Cells per Lymph Node” value ([1]; 20 μl of 0.5 mM in HBSS injected at two sites in abdominal skin, dibutyl phthalate and acetone topically 2 hours later, two days later) was 1.1 × 10^7. For the same sequence, the “Dendritic Cells per Lymph Node” value [1, 4] was 162,628, the “K^b:SIINFEKL^+ DC per LymphNode” value [1, 4] was 89,598 and the Enhancement ([1]; K^b:SIINFEKL+ DC versus HBSS injection) was 44×. The Enhancement ([1]; SIINFEKL alone (reference)) was 1×, the “increase in the total number of dendritic cells per lymph node” value ([1]; SIINFEKL injection followed by topical migration/maturation inducer versus without) was 18.5 fold and the “increase in antigen-bearing dendritic cells per lymph node” value ([1]; SIINFEKL injection with versus without migration/maturation inducer) was 44 fold. The “Median No. of Complexes/Cell” value [1, 5] was 860 complexes/cell, the “Median Specific Fl. Intensity” value [1, 5] was 43 and the “increase in the number of antigen-bearing dendritic cells in the draining lymph nodes” value ([1]; injection followed by topical induction of migration, two days later) was 44 fold.
